From patent US20110251286A1, “Crystalline salts and/or co-crystals of O-desmethyltramadol” (GRUENENTHAL GmbH, priority 2010, published 2011)

Key:
[1] = Release in artificial intestinal juice; format: physicochemical; settings: for Release in artificial intestinal juice, percent of the substance released: permeable bag, amount calculated on 100 mg free base; for release rate compared to the hydrochloride salt: in artificial intestinal juice
Experimental: Investigations on release were carried out in a Sotax AT7 smart release apparatus with UV measurement (Perkin Elmer photometer).
A vessel with Wood apparatus was used (for intrinsic release).
A pressing of 0.5 cm^2 surface area (diameter 8 mm) was produced with a force of 200 N using approximately 100 mg of active ingredient.
Release was carried out in a release medium, which is composed as described below: • Intestinal juice without pancreas powder, pH 6.8 (analogous to Ph. Eur.); 250.0 ml 6.8 g of potassium dihydrogenphosphate R+0.896 g of NaOH+water to 1000.0 ml.
Release was carried out in a release volume of in each case 500±5 ml at a temperature of the release medium of 37±1° C. with a stirring speed of 100±5 rpm.
The content determination was carried out by means of spectroscopic methods (UV spectroscopy, wavelength: 271 nm, cuvette: 10 mm). Sample taking was carried out manually.
In this release experiment, the individual compounds were placed in a permeable bag in an amount in each case calculated on 100 mg of the free base.
The results, expressed in percent of the substance released, are reproduced in the following tables. In this case, the compounds denote: HCl: hydrochloride; A: cinnamate; B: palmitate; C: decanoate; E: hemi-fumarate and F: hemi-sebacate.

[2] = Dynamic vapor sorption (DVS): sorption and desorption of moisture; format: physicochemical
Experimental: Investigations on the sorption and desorption of moisture (dynamic vapor sorption, DVS): DVS measurements were carried out on an apparatus of the type DVS 1000 from Porotec. The evaluation of the measurements was carried out using software from Surface Measurement Systems. At a temperature between 23° C. and 26° C., starting from a relative humidity of 50%, within 240 minutes the relative humidity first increased to 90% and then fell to 0%. This cycle was repeated a second time. The DVS charts shown are isothermal recordings (plots) of the change in the mass in % (change in mass—dry) as a function of the desired relative humidity in % (target RH). Correspondingly, the axes of the graphs are marked by ΔM [%] and RH [%]. The measurement curves of the first sorption are designated by 1-S, the subsequent first desorption by 1-D, the second sorption by 2-S and the second desorption by 2-D. Advantageously, mass changes between the sorption and desorption phase are as low as possible.

CN(C)C[C@H]1CCCC[C@]1(O)c1cccc(O)c1.Cl [HCl-2]
Release in artificial intestinal juice, percent of the substance released ([1]; t 2 min): 97.72%
Release in artificial intestinal juice, percent of the substance released ([1]; t 4 min): 98.52%
Release in artificial intestinal juice, percent of the substance released ([1]; t 6 min): 100.41%
Release in artificial intestinal juice, percent of the substance released ([1]; t 8 min): 98.83%
Release in artificial intestinal juice, percent of the substance released ([1]; t 10 min): 100.29%
Release in artificial intestinal juice, percent of the substance released ([1]; t 12 min): 98.70%
Release in artificial intestinal juice, percent of the substance released ([1]; t 15 min): 100.05%
Release in artificial intestinal juice, percent of the substance released ([1]; t 30 min): 99.96%

O=C(O)/C=C/c1ccccc1 [cinnamate]
ΔM Desorption ([2]; 1st cycle, RH 0.0 %): 0.0012%
ΔM Desorption ([2]; 1st cycle, RH 10.0 %): 0.0432%
ΔM Desorption ([2]; 1st cycle, RH 20.0 %): 0.0766%
ΔM Desorption ([2]; 1st cycle, RH 30.0 %): 0.1106%
ΔM Desorption ([2]; 1st cycle, RH 40.0 %): 0.1370%
ΔM Desorption ([2]; 1st cycle, RH 50.0 %): 0.1624%
ΔM Hysteresis ([2]; 1st cycle, RH 50.0 %): −0.0006%
ΔM Sorption ([2]; 1st cycle, RH 50.0 %): 0.1629%
ΔM Desorption ([2]; 1st cycle, RH 60.0 %): 0.2010%
ΔM Hysteresis ([2]; 1st cycle, RH 60.0 %): −0.0299%
ΔM Sorption ([2]; 1st cycle, RH 60.0 %): 0.2309%
ΔM Desorption ([2]; 1st cycle, RH 70.0 %): 0.2562%
ΔM Hysteresis ([2]; 1st cycle, RH 70.0 %): −0.0081%
ΔM Sorption ([2]; 1st cycle, RH 70.0 %): 0.2643%
ΔM Desorption ([2]; 1st cycle, RH 80.0 %): 0.2988%
ΔM Hysteresis ([2]; 1st cycle, RH 80.0 %): 0.0150%
ΔM Sorption ([2]; 1st cycle, RH 80.0 %): 0.2839%
ΔM Desorption ([2]; 1st cycle, RH 90.0 %): 0.3057%
ΔM Sorption ([2]; 1st cycle, RH 90.0 %): 0.3057%
ΔM Desorption ([2]; 2nd cycle, RH 0.0 %): −0.0605%
ΔM Sorption ([2]; 2nd cycle, RH 0.0 %): 0.0012%
ΔM Desorption ([2]; 2nd cycle, RH 10.0 %): −0.0253%
ΔM Hysteresis ([2]; 2nd cycle, RH 10.0 %): −0.0610%
ΔM Sorption ([2]; 2nd cycle, RH 10.0 %): 0.0357%
ΔM Desorption ([2]; 2nd cycle, RH 20.0 %): 0.0046%
ΔM Hysteresis ([2]; 2nd cycle, RH 20.0 %): −0.0576%
ΔM Sorption ([2]; 2nd cycle, RH 20.0 %): 0.0622%
ΔM Desorption ([2]; 2nd cycle, RH 30.0 %): 0.0322%
ΔM Hysteresis ([2]; 2nd cycle, RH 30.0 %): −0.0576%
ΔM Sorption ([2]; 2nd cycle, RH 30.0 %): 0.0898%
ΔM Desorption ([2]; 2nd cycle, RH 40.0 %): 0.0605%
ΔM Hysteresis ([2]; 2nd cycle, RH 40.0 %): −0.0553%
ΔM Sorption ([2]; 2nd cycle, RH 40.0 %): 0.1157%
ΔM Desorption ([2]; 2nd cycle, RH 50.0 %): 0.0881%
ΔM Hysteresis ([2]; 2nd cycle, RH 50.0 %): −0.0530%
ΔM Sorption ([2]; 2nd cycle, RH 50.0 %): 0.1411%
ΔM Desorption ([2]; 2nd cycle, RH 60.0 %): 0.1169%
ΔM Hysteresis ([2]; 2nd cycle, RH 60.0 %): −0.0461%
ΔM Sorption ([2]; 2nd cycle, RH 60.0 %): 0.1629%
ΔM Desorption ([2]; 2nd cycle, RH 70.0 %): 0.1480%
ΔM Hysteresis ([2]; 2nd cycle, RH 70.0 %): −0.0248%
ΔM Sorption ([2]; 2nd cycle, RH 70.0 %): 0.1727%
ΔM Desorption ([2]; 2nd cycle, RH 80.0 %): 0.1658%
ΔM Hysteresis ([2]; 2nd cycle, RH 80.0 %): −0.0052%
ΔM Sorption ([2]; 2nd cycle, RH 80.0 %): 0.1710%
ΔM Desorption ([2]; 2nd cycle, RH 90.0 %): 0.1532%
ΔM Sorption ([2]; 2nd cycle, RH 90.0 %): 0.1532%
ΔM Sorption ([2]; 3rd cycle, RH 0.0 %): −0.0605%
ΔM Sorption ([2]; 3rd cycle, RH 10.0 %): −0.0190%
ΔM Sorption ([2]; 3rd cycle, RH 20.0 %): 0.0104%
ΔM Sorption ([2]; 3rd cycle, RH 30.0 %): 0.0345%
ΔM Sorption ([2]; 3rd cycle, RH 40.0 %): 0.0599%
ΔM Sorption ([2]; 3rd cycle, RH 50.0 %): 0.0829%
release rate compared to the hydrochloride salt [1]: decreased release rates compared to the hydrochloride salt

CCCCCCCCCC(=O)O.CN(C)CC1CCCCC1(O)c1cccc(O)c1 (stereo not drawn) [decanoate]
release rate compared to the hydrochloride salt [1]: decreased release rates compared to the hydrochloride salt
